Test results: patent publication US20200163984A1, “USE OF ISOVALERYL SPIRAMYCIN I, II AND/OR III IN MANUFACTURING MEDICAMENT FOR TREATING AND/OR PREVENTING TUMOR, AND MEDICAMENT” (SHENYANG FUYANG PHARMACEUTICAL TECHNOLOGY CO., LTD., priority 2017, published 2020)

Experiments:
[1] = system: transplanted tumor of human hepatoma cell HepG-2; assay: HepG-2 transplanted tumor in nude mice; settings: for Tumor Volume (mm3) (d 1): d1
Procedure: (§1) Then cell concentration was adjusted to 1×10^7/ml with matrigel, then each nude mouse was inoculated subcutaneously with 0.2 ml of cells at its right armpit and recorded as the first day of inoculation. When the tumor grows to be greater than or equal to 100 mm^3, the mice were randomly divided into 11 groups with 6 mice in each group: a model group, a cyclophosphamide group, isovaleryl spiramycin I groups with doses of 25, 50 and 100 mg/kg, isovaleryl spiramycin II groups with doses of 25, 50 and 100 mg/kg, and isovaleryl spiramycin III groups with doses of 25, 50 and 100 mg/kg. Each group was continuously administered intragastrically for 30 days with a dose of 20 ml/kg. The mice were sacrificed the next day after drug withdrawal and the indicators were tested. The long diameter and short diameter of the tumor, and the body weight of each mouse were recorded every 3 days from drug administration to nude mouse sacrifice.
(§2) The body weight of the nude mice and the long diameter (a) and short diameter (b) of the transplanted tumor were measured every 3 days, and the tumor volume (v), relative tumor volume (RTV) and relative tumor proliferation rate (T/C) are calculated respectively according to the following formulas, wherein V=a×b^2/2; RTV=V/V0 (V0 is the tumor volume before administration, V is the tumor volume before sacrifice), and T/C (%)=treatment group RTV/model control group RTV×100%.
(§3) Each mouse was weighed and sacrificed. After the tumor was completely stripped off from the body of the mouse, the non-tumor tissues such as blood stains and fat were removed to weigh the tumor and calculate the tumor growth inhibition rate. The average tumor weight of each group of mice is used as an indicator of efficacy. Tumor growth inhibition rate (%)=(1−the average tumor weight of the treatment group/the average tumor weight of the model group)×100%.

[2] = system: transplanted tumor of human lymphoma cell U937; assay: U937 transplanted tumor in nude mice; settings: for Tumor Volume (mm3) (d 1): d1
Procedure: as §1, with “U937 cells in a logarithmic growth phase were taken and subjected to a trypan blue exclusion experiment showing that the cell viability was more than 95%, then the cells were subjected to trypsinization, centrifugation, and supernatant removal. Then” for “Then”
as §2, §3

[3] = system: transplanted tumor of human esophageal cancer cell TE-1; assay: TE-1 transplanted tumor in nude mice
Procedure: as §1, §2, §3

[4] = system: transplanted tumor of human breast cancer cell MDA-MB-231; assay: MDA-MB-231 transplanted tumor in nude mice
Procedure: as §1, §2, §3

[5] = HepG-2, high dose (100 mg/kg in method) i.g. 30 days
[6] = HepG-2, low dose (25 mg/kg in method) i.g. 30 days
[7] = HepG-2, medium dose (50 mg/kg in method) i.g. 30 days
[8] = U937, high dose (100 mg/kg in method) i.g. 30 days
[9] = U937, low dose (25 mg/kg in method) i.g. 30 days
[10] = U937, medium dose (50 mg/kg in method) i.g. 30 days
[11] = TE-1, 12.5 mg/kg (low dose) i.g. 30 days
[12] = TE-1, 25 mg/kg (medium dose) i.g. 30 days
[13] = TE-1, 50 mg/kg (high dose) i.g. 30 days
[14] = MDA-MB-231, 25 mg/kg (low dose) i.g. 30 days
[15] = MDA-MB-231, 50 mg/kg (medium dose) i.g. 30 days
[16] = MDA-MB-231, 100 mg/kg (high dose) i.g. 30 days

COC1C(OC(C)=O)CC(=O)OC(C)CC=CC=CC(OC2CCC(N(C)C)C(C)O2)C(C)CC(CC=O)C1OC1OC(C)C(OC2CC(C)(O)C(OC(=O)CC(C)C)C(C)O2)C(N(C)C)C1O (centres unmarked) [Isovaleryl spiramycin II, isovaleryl spiramycin II]
Relative Tumor Proliferation Rate (T/C) [1, 5]: 39.31%
tumor growth inhibition rate [1, 5]: 61.56%
Relative Tumor Proliferation Rate (T/C) [1, 6]: 81.03%
tumor growth inhibition rate [1, 6]: 21.07%
tumor volume and relative tumor volume compared with the model group ([1]; HepG-2, low, medium and high doses, P<0.05): significantly lower
Relative Tumor Proliferation Rate (T/C) [1, 7]: 57.02%
tumor growth inhibition rate [1, 7]: 31.43%
Inhibition Rate (%) ([1]; HepG-2 nude mice, 25 mg/kg): 21.07%
Relative Tumor Proliferation Rate (T/C) ([1]; HepG-2 nude mice, 25 mg/kg): 81.03%
Relative Tumor Volume (RTV) ([1]; HepG-2 nude mice, 25 mg/kg): 13.57 ± 1.64
Tumor Weight ([1]; HepG-2 nude mice, 25 mg/kg): 1.92 ± 0.32 g
Tumor Volume (mm3) (d 1) ([1]; HepG-2 nude mice, 25 mg/kg): 122.82 ± 4.10 mm3
Tumor Volume (mm3) (d30) ([1]; HepG-2 nude mice, 25 mg/kg): 1666.11 ± 202.07 mm3
Inhibition Rate (%) ([1]; HepG-2 nude mice, 50 mg/kg): 31.43%
Relative Tumor Proliferation Rate (T/C) ([1]; HepG-2 nude mice, 50 mg/kg): 57.02%
Relative Tumor Volume (RTV) ([1]; HepG-2 nude mice, 50 mg/kg): 9.55 ± 2.84
Tumor Weight ([1]; HepG-2 nude mice, 50 mg/kg): 1.67 ± 0.32 g
Tumor Volume (mm3) (d 1) ([1]; HepG-2 nude mice, 50 mg/kg): 118.60 ± 4.30 mm3
Tumor Volume (mm3) (d30) ([1]; HepG-2 nude mice, 50 mg/kg): 1127.90 ± 319.12 mm3
Inhibition Rate (%) ([1]; HepG-2 nude mice, 100 mg/kg): 61.56%
Relative Tumor Proliferation Rate (T/C) ([1]; HepG-2 nude mice, 100 mg/kg): 39.31%
Relative Tumor Volume (RTV) ([1]; HepG-2 nude mice, 100 mg/kg): 6.58 ± 2.48
Tumor Weight ([1]; HepG-2 nude mice, 100 mg/kg): 0.93 ± 0.41 g
Tumor Volume (mm3) (d 1) ([1]; HepG-2 nude mice, 100 mg/kg): 118.70 ± 7.20 mm3
Tumor Volume (mm3) (d30) ([1]; HepG-2 nude mice, 100 mg/kg): 783.73 ± 312.41 mm3
mouse weight compared with the model group ([1]; mouse, in vivo): no significant changes
Body Weight (g) (d1) ([1]; mouse, in vivo, 25 mg/kg): 21.98 ± 1.74 g
Body Weight (g) (d30) ([1]; mouse, in vivo, 25 mg/kg): 23.35 ± 1.83 g
Body Weight (g) (d1) ([1]; mouse, in vivo, 50 mg/kg): 20.75 ± 1.86 g
Body Weight (g) (d30) ([1]; mouse, in vivo, 50 mg/kg): 22.22 ± 1.62 g
Body Weight (g) (d1) ([1]; mouse, in vivo, 100 mg/kg): 21.48 ± 1.98 g
Body Weight (g) (d30) ([1]; mouse, in vivo, 100 mg/kg): 22.45 ± 1.28 g
Relative Tumor Proliferation Rate (T/C) [2, 8]: 46.09%
tumor growth inhibition rate [2, 8]: 43.63%
Relative Tumor Proliferation Rate (T/C) [2, 9]: 74.19%
tumor growth inhibition rate [2, 9]: 25.61%
tumor volume and relative tumor volume compared with the model group ([2]; U937, low, medium and high doses, P<0.05): significantly lower
Relative Tumor Proliferation Rate (T/C) [2, 10]: 52.10%
tumor growth inhibition rate [2, 10]: 35.44%
Inhibition Rate (%) ([2]; U937 nude mice, 12.5 mg/kg): 25.61%
Relative Tumor Proliferation Rate (T/C) ([2]; U937 nude mice, 12.5 mg/kg): 74.19%
Relative Tumor Volume (RTV) ([2]; U937 nude mice, 12.5 mg/kg): 12.64 ± 5.00
Tumor Weight ([2]; U937 nude mice, 12.5 mg/kg): 1.44 ± 0.64 g
Tumor Volume (mm3) (d 1) ([2]; U937 nude mice, 12.5 mg/kg): 111.58 ± 23.26 mm3
Tumor Volume (mm3) (d30) ([2]; U937 nude mice, 12.5 mg/kg): 1400.95 ± 558.82 mm3
Inhibition Rate (%) ([2]; U937 nude mice, 25 mg/kg): 35.44%
Relative Tumor Proliferation Rate (T/C) ([2]; U937 nude mice, 25 mg/kg): 52.10%
Relative Tumor Volume (RTV) ([2]; U937 nude mice, 25 mg/kg): 8.88 ± 2.64
Tumor Weight ([2]; U937 nude mice, 25 mg/kg): 1.25 ± 0.66 g
Tumor Volume (mm3) (d 1) ([2]; U937 nude mice, 25 mg/kg): 120.21 ± 24.68 mm3
Tumor Volume (mm3) (d30) ([2]; U937 nude mice, 25 mg/kg): 1117.59 ± 565.29 mm3
Inhibition Rate (%) ([2]; U937 nude mice, 50 mg/kg): 43.63%
Relative Tumor Proliferation Rate (T/C) ([2]; U937 nude mice, 50 mg/kg): 46.09%
Relative Tumor Volume (RTV) ([2]; U937 nude mice, 50 mg/kg): 7.85 ± 3.27
Tumor Weight ([2]; U937 nude mice, 50 mg/kg): 1.09 ± 0.62 g
Tumor Volume (mm3) (d 1) ([2]; U937 nude mice, 50 mg/kg): 111.50 ± 7.03 mm3
Tumor Volume (mm3) (d30) ([2]; U937 nude mice, 50 mg/kg): 885.75 ± 418.53 mm3
mouse weight compared with the model group ([2]; mouse, in vivo): no significant changes
Body Weight (g) (d1) ([2]; mouse, in vivo, 12.5 mg/kg): 21.10 ± 0.64 g
Body Weight (g) (d30) ([2]; mouse, in vivo, 12.5 mg/kg): 20.97 ± 0.74 g
Body Weight (g) (d1) ([2]; mouse, in vivo, 25 mg/kg): 21.05 ± 0.30 g
Body Weight (g) (d30) ([2]; mouse, in vivo, 25 mg/kg): 21.03 ± 0.632 g
Body Weight (g) (d1) ([2]; mouse, in vivo, 50 mg/kg): 20.80 ± 0.51 g
Body Weight (g) (d30) ([2]; mouse, in vivo, 50 mg/kg): 21.22 ± 0.51 g
Inhibition Rate (tumor growth inhibition rate) [3, 11]: 24.87%
Relative Tumor Proliferation Rate (T/C) [3, 11]: 70.32%
Relative Tumor Volume (RTV) [3, 11]: 7.92 ± 6.86
Tumor Volume (d 1) [3, 11]: 134.33 ± 57.77 mm3
Tumor Volume (d 30) [3, 11]: 1027.37 ± 363.55 mm3
Tumor Weight [3, 11]: 1.18 ± 0.60 g
Inhibition Rate (tumor growth inhibition rate) [3, 12]: 43.78%
Relative Tumor Proliferation Rate (T/C) [3, 12]: 50.51%
Relative Tumor Volume (RTV) [3, 12]: 6.99 ± 5.39
Tumor Volume (d 1) [3, 12]: 195.76 ± 76.95 mm3
Tumor Volume (d 30) [3, 12]: 1075.36 ± 720.20 mm3
Tumor Weight [3, 12]: 0.88 ± 0.46 g
Inhibition Rate (tumor growth inhibition rate) [3, 13]: 72.48%
Relative Tumor Proliferation Rate (T/C) [3, 13]: 36.49%
Relative Tumor Volume (RTV) [3, 13]: 6.97 ± 7.85
Tumor Volume (d 1) [3, 13]: 143.85 ± 16.25 mm3
Tumor Volume (d 30) [3, 13]: 570.92 ± 293.97 mm3
Tumor Weight [3, 13]: 0.43 ± 0.26 g
tumor volume and relative tumor volume compared with the model group ([3]; TE-1, low, medium and high doses, P<0.05): significantly lower
mouse weight compared with the model group ([3]; mouse, in vivo): no significant changes
Inhibition Rate (tumor growth inhibition rate) [4, 14]: 18.17%
Relative Tumor Proliferation Rate (T/C) [4, 14]: 80.22%
Relative Tumor Volume (RTV) [4, 14]: 12.53 ± 1.78
Tumor Volume (d 1) [4, 14]: 119.72 ± 6.52 mm3
Tumor Volume (d 30) [4, 14]: 1493.96 ± 171.49 mm3
Tumor Weight [4, 14]: 1.90 ± 0.31 g
Inhibition Rate (tumor growth inhibition rate) [4, 15]: 29.66%
Relative Tumor Proliferation Rate (T/C) [4, 15]: 58.78%
Relative Tumor Volume (RTV) [4, 15]: 9.18 ± 2.38
Tumor Volume (d 1) [4, 15]: 119.07 ± 3.19 mm3
Tumor Volume (d 30) [4, 15]: 1094.89 ± 291.37 mm3
Tumor Weight [4, 15]: 1.63 ± 0.32 g
Inhibition Rate (tumor growth inhibition rate) [4, 16]: 58.91%
Relative Tumor Proliferation Rate (T/C) [4, 16]: 30.89%
Relative Tumor Volume (RTV) [4, 16]: 6.08 ± 1.74
Tumor Volume (d 1) [4, 16]: 115.89 ± 9.01 mm3
Tumor Volume (d 30) [4, 16]: 700.44 ± 192.38 mm3
Tumor Weight [4, 16]: 0.95 ± 0.42 g
tumor volume and relative tumor volume compared with the model group ([4]; MDA-MB-231, low, medium and high doses, P<0.05): significantly lower
mouse weight compared with the model group ([4]; mouse, in vivo): no significant changes
